Results on one compound are retold here after patent US7943606B2, “Compositions and methods to control abnormal cell growth” (CanCure Laboratories, LLC, priority 2005, dated 2011).

Data set [1] can be described thus: Viability of MRC-5 normal lung fibroblasts (MTT assay). It counts as cell-based. The note with it: human, MRC-5 normal lung fibroblasts; 30,000 cells per well (80-90% confluent), 72 hours, MTT; read-out: IC50 values, Cytotoxic, MRC-5. The procedure:
(§1) To quantify cell death, around the time when significant and characteristic morphological changes took place, cells were pulse-labeled for 10 minutes with [^3H]thymidine to measure DNA activity as described elsewhere [Tomono, M. and Kiss, Z. (1995), “Ethanol enhances the stimulatory effects of insulin and insulin-like growth factor-I on DNA synthesis in NIH 3T3 fibroblasts,” Biochem. Biophys. Res. Commun. 208, 63-67]. Also, cells were collected as suspensions using trypsin, an established method in cell biology, followed by re-plating of cells in fresh tissue culture medium. If no viable cells were obtained after one week in culture, it meant that the cells at the time of re-plating were dead. Survival values obtained with untreated cells were considered 100%. For the determination of relative number of viable cells after treatments, in most cases the MTT assay was used. This calorimetric assay is based on the ability of living cells, but not dead cells, to reduce 3-(4,5-dimethyl thiazol-2-yl)-2,5-diphenyltetrazolium bromide [Carmichael, J, De Graff, W. G., Gazdar, A. F., Minna, J. D. and Mitchell, J. B. (1987), “Evaluation of tetrazolium-based semi-automated calorimetric assay: Assessment of chemosensitivity testing,” Cancer Res. 47, 936-942]. For this assay, cells were plated in 96-well plates, and the MTT assay was performed both in untreated and treated cell cultures. The MTT assay also was performed at the start of treatments to allow assessment of proliferation rates in the control and treated cell cultures.
(§2) The MRC-5 cell line is derived from normal lung tissue of a […] fetus. MRC-5 cells were maintained and treated in Eagles Medium with Hanks' BSS containing 10% fetal bovine serum. The T47D cells were maintained and treated in RPMI 1640 medium supplemented with 0.2 IU bovine insulin and 10% fetal bovine serum. The CaOV-3 human ovarian cancer cells were cultured in Dulbecco's modified Eagle's medium containing 10% fetal bovine serum. The cells were seeded in 96-well plates either at 10,000 cells per well or 30,000 cells per well to examine the antiproliferative and cytotoxic effects of various CC compounds, respectively. The cells were incubated for 24 hours, then the medium was changed followed by the treatments of cultures 2 hours after the medium change. At this point, cell cultures seeded at 10,000 cells per well and 30,000 cells per well were 25-35% and 80-90% confluent, respectively. Incubations were continued for 72 hours followed by the MTT assay. The data, shown in TABLE 2, indicate the inhibitory concentrations of CC compounds (IC50) required for 50% decrease in the number of viable cells. These numbers are calculated from the mean of 4 incubations in one experiment (the experiment was repeated once with similar results).
(In general: Formazan colour is commonly taken as a measure of viable cells.)

For a further data set, the system named is MRC-5 cells. Described as above. It counts as cell-based. The conditions noted are these: Homo sapiens, MRC5; 10,000 cells per well (25-35% confluent), 72 hours, MTT; read-out: IC50 values, Antiproliferative, MRC-5. The procedure:
as §1, §2

A short description of data set [2]: Viability of NIH 3T3 normal fibroblasts (MTT assay). The note with it: mouse. It counts as cell-based. The gist of the method: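 Mouse NIH 3T3 fibroblasts in DMEM with 10% FBS, treated at ~60-90% confluency with 0-200 μM compound for 72 h, or 50/100 μM for 10 days with re-treatment on days 3 and 6. Viability by MTT reduction, as percent decrease vs untreated cells; mean±SD of 8 incubations.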

Another data set concerns HaCaT keratinocytes. In words: Viability of HaCaT keratinocytes. Type of data set: cell-based. The protocol: as §1
HaCaT keratinocytes, frequently used immortalized model cells for studying psoriatic keratinocytes, and HTB-157 human fetus lung fibroblasts were cultured in 10% FBS-containing Dulbecco's modified Eagle's medium (DMEM). Cells were distributed in 96-well plates; when cells were 50-60% confluent, the medium was changed for fresh 10% serum-containing medium, followed by incubations for 48 hours in the absence (□) or presence of 50 μM CCDTHT ? , or 100 μM CCDTHT (▪). The MTT assay was used to determine cell viability. […]

Data set [3] relates to HL-60, HT-168, PC-3 and T47D human tumor xenografts. In words: Growth of HL-60, HT-168, PC-3 and T47D human tumor xenografts in mice. Type of data set: in vivo, mouse. The protocol:
Tumor volume was calculated according to the generally accepted formula: V=a^2×b×π/6, where “a” and “b” mean the shortest and longest diameter, respectively, of the measured tumor.
(In general: A xenograft is tissue or cells of one species grown in another, often human tumour cells in immunodeficient mice.)

Values joined by “and” are separate entries in the source; they are usually repeats but may differ in a detail not shown here. Equal entries are not always repeated.

As usually defined, the IC50 is the concentration needed to halve the response being measured. By inhibition is commonly meant the relative decrease from the control value, in per cent. Turning to `CC[N+](C)(CC)CCOCc1ccc2sc3ccccc3c(=O)c2c1.[I-]` [CCDTHT, N,N-diethyl-N-methyl-2-[(9-oxo-9H-thioxanthen-2-yl)methoxy]-ethanaminium iodide], the IC50 at 72 h in data set [1] stood at 119 µM. In the data set on MRC-5 cells, the IC50 was determined as 90 µM. Also, in data set [2], the cytotoxicity at 10 days, 100 μM is no more than 50%. The “reduction in the number of viable HaCaT cells” value in the data set on HaCaT keratinocytes (50-100 μM, 48 hours, MTT) was 85-98% and 85-100%. The inhibition at 100 µM in the data set with HaCaT keratinocytes (Homo sapiens, HaCaT, 48 h, read-out: inhibition of DNA synthesis, HaCaT) is roughly 95%. In the data set on HaCaT keratinocytes (re-plated after treatment, fresh medium for 1 week), the “viable cells after re-plating of treated HaCaT cells” value was “no viable cells were found”. Also, in data set [3] (50-400 μmole s.c. once daily), the weight loss result was “In none of the cases did CCDTHT cause significant weight loss”. In data set [3] (200-400 μmole s.c. once daily), the “growth of each tumor (HL-60, HT-168, PC-3, T47D)” value was “considerably reduced”.
